The source of these data is ChEMBL document CHEMBL3994622, “Design and synthesis of new RAF kinase-inhibiting antiproliferative quinoline derivatives. Part 2: Diarylurea derivatives” (Eur J Med Chem, 2017).

Assay [1] has as its system Serine/threonine-protein kinase B-raf (Homo sapiens), P15056 [V600E]. As to the kind of experiment: Inhibition of human BRAF V600E mutant at 10 uM using MEK1 as substrate in presence of [33P]ATP by Hotspot assay relative to control.
The test system of another assay is LOX IMVI. As to the kind of experiment: Growth inhibition of human LOXIMVI cells assessed as cell growth at 0.3 uM incubated for 48 hrs by sulforhodamine B assay relative to control. The class given is functional. The note with it: read-out: Activity. (In general: Sulforhodamine B stains cellular protein and so reports cell mass.)
Another assay has as its system NCI/ADR-RES. As to the kind of experiment: Growth inhibition of human NCI/ADR-RES cells assessed as cell growth at 0.05 uM incubated for 48 hrs by sulforhodamine B assay relative to control. The class given is functional. Particulars: read-out: Activity.
Assay [2] concerns OVCAR-4. The assay is described as follows: Growth inhibition of human OVCAR4 cells assessed as cell growth at 0.5 uM incubated for 48 hrs by sulforhodamine B assay relative to control. It is filed as functional. Particulars: OVCAR-4, 48 h, read-out: Activity.
The next assay concerns OVCAR-5. As to the kind of experiment: Growth inhibition of human OVCAR5 cells assessed as cell growth at 0.05 uM incubated for 48 hrs by sulforhodamine B assay relative to control. The class given is functional. The note with it: OVCAR-5, 48 h, read-out: Activity.
A further assay has as its system UO-31. As to the kind of experiment: Growth inhibition of human UO31 cells assessed as cell growth at 0.005 uM incubated for 48 hrs by sulforhodamine B assay relative to control. The class given is functional. Particulars: UO-31, 48 h, read-out: Activity.
The subject of the next assay is SW-620. As to the kind of experiment: Growth inhibition of human SW620 cells assessed as cell growth at 0.005 uM incubated for 48 hrs by sulforhodamine B assay relative to control. The class given is functional. The note with it: SW-620, 48 h, read-out: Activity.
Another assay has as its system SF-539. As to the kind of experiment: Growth inhibition of human SF539 cells assessed as cell growth at 0.005 uM incubated for 48 hrs by sulforhodamine B assay relative to control. It is filed as functional. The note with it: SF-539, 48 h, read-out: Activity.
For assay [3], the system named is OVCAR-4. As to the kind of experiment: Growth inhibition of human OVCAR4 cells assessed as cell growth at 5 uM incubated for 48 hrs by sulforhodamine B assay relative to control. The class given is functional. Particulars: OVCAR-4, 48 h, read-out: Activity.
The test system of a further assay is BT-549. As to the kind of experiment: Growth inhibition of human BT549 cells assessed as cell growth at 0.005 uM incubated for 48 hrs by sulforhodamine B assay relative to control. It is filed as functional. Particulars: BT-549, 48 h, read-out: Activity.
For assay [4], the system named is UACC-257. As to the kind of experiment: Growth inhibition of human UACC257 cells assessed as cell growth at 50 uM incubated for 48 hrs by sulforhodamine B assay relative to control. Particulars: UACC-257, 48 h, read-out: Activity. It is filed as functional.
In assay [5] the test system is SR. As to the kind of experiment: Growth inhibition of human SR cells assessed as cell growth at 0.005 uM incubated for 48 hrs by sulforhodamine B assay relative to control. The class given is functional. Particulars: read-out: Activity.
A further assay deals with 786-0. As to the kind of experiment: Growth inhibition of human 786-0 cells assessed as cell growth at 0.005 uM incubated for 48 hrs by sulforhodamine B assay relative to control. It is filed as functional. The note with it: 786-0, 48 h, read-out: Activity.
A further assay deals with COLO 205. As to the kind of experiment: Growth inhibition of human COLO205 cells assessed as cell growth at 5 uM incubated for 48 hrs by sulforhodamine B assay relative to control. The note with it: COLO 205, 48 h, read-out: Activity. The class given is functional.
The next assay relates to SK-MEL-2. The assay is described as follows: Growth inhibition of human SK-MEL-2 cells assessed as cell growth at 0.05 uM incubated for 48 hrs by sulforhodamine B assay relative to control. It is filed as functional. The note with it: SK-MEL-2, 48 h, read-out: Activity.
Assay [6] deals with UACC-257. The assay is described as follows: Growth inhibition of human UACC257 cells assessed as cell growth at 0.5 uM incubated for 48 hrs by sulforhodamine B assay relative to control. Particulars: UACC-257, 48 h, read-out: Activity. It is filed as functional.
A further assay deals with K562. As to the kind of experiment: Growth inhibition of human K562 cells assessed as cell growth at 5 uM incubated for 48 hrs by sulforhodamine B assay relative to control. The class given is functional. The note with it: K562, 48 h, read-out: Activity.
The test system of assay [7] is M14. The assay is described as follows: Growth inhibition of human M14 cells assessed as cell growth at 0.005 uM incubated for 48 hrs by sulforhodamine B assay relative to control. The class given is functional. The note with it: M14, 48 h, read-out: Activity.
A further assay has as its system HCC 2998. The assay is described as follows: Growth inhibition of human HCC2998 cells assessed as cell growth at 5 uM incubated for 48 hrs by sulforhodamine B assay relative to control. The class given is functional. Particulars: HCC 2998, 48 h, read-out: Activity.
Assay [8] has as its system TK-10. The assay is described as follows: Growth inhibition of human TK10 cells assessed as cell growth at 0.05 uM incubated for 48 hrs by sulforhodamine B assay relative to control. The note with it: TK-10, 48 h, read-out: Activity. The class given is functional.
The test system of another assay is DU-145. The assay is described as follows: Growth inhibition of human DU145 cells assessed as cell growth at 5 uM incubated for 48 hrs by sulforhodamine B assay relative to control. The note with it: DU-145, 48 h, read-out: Activity. The class given is functional.
In assay [9] the test system is TK-10. The assay is described as follows: Growth inhibition of human TK10 cells assessed as cell growth at 5 uM incubated for 48 hrs by sulforhodamine B assay relative to control. The class given is functional. Particulars: TK-10, 48 h, read-out: Activity.
For a further assay, the system named is NCI-H322M. As to the kind of experiment: Growth inhibition of human NCI-H322M cells assessed as cell growth at 0.005 uM incubated for 48 hrs by sulforhodamine B assay relative to control. The class given is functional. Particulars: read-out: Activity.
For assay [10], the system named is TK-10. As to the kind of experiment: Growth inhibition of human TK10 cells assessed as cell growth at 0.5 uM incubated for 48 hrs by sulforhodamine B assay relative to control. The class given is functional. The note with it: TK-10, 48 h, read-out: Activity.
Assay [11] concerns SR. As to the kind of experiment: Growth inhibition of human SR cells assessed as cell growth at 5 uM incubated for 48 hrs by sulforhodamine B assay relative to control. It is filed as functional. Particulars: read-out: Activity.
The test system of assay [12] is M14. The assay is described as follows: Growth inhibition of human M14 cells assessed as cell growth at 0.5 uM incubated for 48 hrs by sulforhodamine B assay relative to control. The class given is functional. Particulars: M14, 48 h, read-out: Activity.
In assay [13] the test system is M14. The assay is described as follows: Growth inhibition of human M14 cells assessed as cell growth at 5 uM incubated for 48 hrs by sulforhodamine B assay relative to control. It is filed as functional. Particulars: M14, 48 h, read-out: Activity.
For another assay, the system named is Malme-3M. The assay is described as follows: Growth inhibition of human MALME-3M cells assessed as cell growth at 0.5 uM incubated for 48 hrs by sulforhodamine B assay relative to control. The class given is functional. The note with it: read-out: Activity.
In a further assay the test system is SF-268. The assay is described as follows: Growth inhibition of human SF268 cells assessed as cell growth at 0.05 uM incubated for 48 hrs by sulforhodamine B assay relative to control. The class given is functional. The note with it: SF-268, 48 h, read-out: Activity.
The next assay deals with MOLT-4. As to the kind of experiment: Growth inhibition of human MOLT4 cells assessed as cell growth at 0.05 uM incubated for 48 hrs by sulforhodamine B assay relative to control. The class given is functional. Particulars: MOLT-4, 48 h, read-out: Activity.
The test system of the next assay is SK-MEL-5. The assay is described as follows: Growth inhibition of human SK-MEL-5 cells assessed as cell growth at 0.005 uM incubated for 48 hrs by sulforhodamine B assay relative to control. The class given is functional. The note with it: SK-MEL-5, 48 h, read-out: Activity.
In assay [14] the test system is MDA-MB-468. As to the kind of experiment: Growth inhibition of human MDA-MB-468 cells assessed as cell growth at 0.01 uM incubated for 48 hrs by sulforhodamine B assay relative to control. It is filed as functional. The note with it: MDA-MB-468, 48 h, read-out: Activity.
Assay [15] has as its system MDA-MB-468. The assay is described as follows: Growth inhibition of human MDA-MB-468 cells assessed as cell growth at 0.1 uM incubated for 48 hrs by sulforhodamine B assay relative to control. It is filed as functional. The note with it: MDA-MB-468, 48 h, read-out: Activity.
In a further assay the test system is NCI-H460. The assay is described as follows: Growth inhibition of human NCI-H460 cells assessed as cell growth at 10 uM incubated for 48 hrs by sulforhodamine B assay relative to control. It is filed as functional. The note with it: NCI-H460, 48 h, read-out: Activity.
For assay [16], the system named is MDA-MB-468. As to the kind of experiment: Growth inhibition of human MDA-MB-468 cells assessed as cell growth at 100 uM incubated for 48 hrs by sulforhodamine B assay relative to control. The class given is functional. Particulars: MDA-MB-468, 48 h, read-out: Activity.

Sequence of Serine/threonine-protein kinase B-raf (Homo sapiens), P15056 [V600E] (P15056 whole entry V600E): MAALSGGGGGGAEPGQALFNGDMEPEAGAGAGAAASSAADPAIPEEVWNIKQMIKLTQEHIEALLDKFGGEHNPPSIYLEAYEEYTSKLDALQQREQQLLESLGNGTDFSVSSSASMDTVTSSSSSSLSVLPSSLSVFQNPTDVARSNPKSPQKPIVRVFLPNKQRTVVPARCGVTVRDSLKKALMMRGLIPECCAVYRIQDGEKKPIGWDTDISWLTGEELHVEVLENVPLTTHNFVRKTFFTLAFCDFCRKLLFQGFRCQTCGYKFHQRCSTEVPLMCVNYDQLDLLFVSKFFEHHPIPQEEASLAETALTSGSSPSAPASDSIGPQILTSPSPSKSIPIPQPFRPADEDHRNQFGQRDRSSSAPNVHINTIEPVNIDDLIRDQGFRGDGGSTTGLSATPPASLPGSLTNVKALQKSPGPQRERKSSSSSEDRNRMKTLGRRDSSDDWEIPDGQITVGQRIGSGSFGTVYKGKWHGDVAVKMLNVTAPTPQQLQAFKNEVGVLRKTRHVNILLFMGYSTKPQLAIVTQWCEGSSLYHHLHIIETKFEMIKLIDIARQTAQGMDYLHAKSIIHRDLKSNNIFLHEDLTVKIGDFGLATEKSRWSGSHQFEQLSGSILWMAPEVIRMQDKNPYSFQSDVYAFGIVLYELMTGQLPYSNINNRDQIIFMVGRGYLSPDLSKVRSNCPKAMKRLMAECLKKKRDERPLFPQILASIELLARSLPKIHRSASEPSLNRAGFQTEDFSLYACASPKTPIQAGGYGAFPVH

In general, inhibition refers to the relative decrease from the control value, in per cent. Turning to `COc1cc2cc(Oc3ccc(NC(=O)Nc4ccc(Cl)c(C(F)(F)F)c4)cc3)c(C)nc2cc1OC`, in assay [1], the inhibition worked out at 88.9%. In addition, the growth at 0.3 µM in the assay with LOX IMVI turned out to be 101%.
In the case of `COc1cc2cc(Oc3ccc(NC(=O)Nc4cccc(C(F)(F)F)c4)cc3)c(C)nc2cc1OC`, the growth at 0.05 µM was determined as 101% with NCI/ADR-RES; 103% in the assay on OVCAR-5; 104% in the assay with SK-MEL-2; 95% in the assay on TK-10 [8]; 89% in the assay with SF-268; 98% in the assay on MOLT-4. Besides, the growth at 0.5 µM amounted to 99% with OVCAR-4 [2]; 82% in the assay on UACC-257 [6]; 108% with TK-10 [10]; 90% in the assay on M14 [12]; 108% with Malme-3M. The growth at 0.005 µM came to 90% with UO-31; 99% in the assay on SW-620; 104% in the assay on SF-539; 96% with BT-549; 93% with SR [5]; 98% in the assay on 786-0. In addition, the growth at 0.005 µM was determined as 98% in the assay on M14 [7], 91% with NCI-H322M and 96% with SK-MEL-5. The growth at 5 µM with OVCAR-4 [3] is 25%; in the assay on COLO 205 it was -48%; in the assay with K562, 13%; with HCC 2998 it was 26%; in the assay on DU-145, 32%; in the assay with TK-10 [9], 19%. Also, the growth at 5 µM in the assay on SR [11] is -19%; in the assay with M14 [13], 14%. Moreover, the growth at 50 µM with UACC-257 [4] is -75%.
In the case of `COc1cc2cc(Oc3ccc(NC(=O)Nc4cc(C(F)(F)F)cc(C(F)(F)F)c4)cc3)c(C)nc2cc1OC`, the growth at 0.01 µM in the assay with MDA-MB-468 [14] amounted to 101%. In the assay on MDA-MB-468 [15], the growth at 0.1 µM came out at 104%. Moreover, the growth at 10 µM with NCI-H460 was -64%. In the assay on MDA-MB-468 [16], the growth at 100 µM was -67%.
